The text below walks through data of patent publication US9840495B2, “Oxindole derivatives carrying a piperidyl-substituted azetidinyl substituent and use thereof for treating vasopressine-related diseases” (AbbVie Deutschland GmbH & Co. KG, priority 2013, dated 2017).

Molecules are shown by their SMILES.

Experiment [1] deals with T1, human vasopressin V1b receptor (Homo sapiens, UniProt P47901).
T1 sequence (P47901 1-424): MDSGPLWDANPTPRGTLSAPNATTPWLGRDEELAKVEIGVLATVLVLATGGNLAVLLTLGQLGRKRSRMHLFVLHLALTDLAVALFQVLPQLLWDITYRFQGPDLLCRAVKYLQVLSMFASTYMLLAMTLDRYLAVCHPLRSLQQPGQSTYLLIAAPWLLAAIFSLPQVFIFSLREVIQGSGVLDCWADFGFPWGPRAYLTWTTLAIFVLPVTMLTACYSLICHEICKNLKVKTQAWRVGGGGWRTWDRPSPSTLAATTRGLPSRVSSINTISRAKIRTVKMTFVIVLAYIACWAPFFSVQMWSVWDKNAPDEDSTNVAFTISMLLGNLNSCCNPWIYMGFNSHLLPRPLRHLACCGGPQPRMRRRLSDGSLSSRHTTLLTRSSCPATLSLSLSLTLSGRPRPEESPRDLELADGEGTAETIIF
The experiment in a line: biochemical.

For experiment [2], the target named is human vasopressin V1a receptor (Homo sapiens, UniProt P37288). The experiment in a line: Vasopressin V1a receptor binding assay (125I-AVP displacement, CHO-K1 membranes). The note with it: selectivity quotient, human V1a vs human V1b receptor binding.
Sequence of human vasopressin V1a receptor (P37288 whole entry): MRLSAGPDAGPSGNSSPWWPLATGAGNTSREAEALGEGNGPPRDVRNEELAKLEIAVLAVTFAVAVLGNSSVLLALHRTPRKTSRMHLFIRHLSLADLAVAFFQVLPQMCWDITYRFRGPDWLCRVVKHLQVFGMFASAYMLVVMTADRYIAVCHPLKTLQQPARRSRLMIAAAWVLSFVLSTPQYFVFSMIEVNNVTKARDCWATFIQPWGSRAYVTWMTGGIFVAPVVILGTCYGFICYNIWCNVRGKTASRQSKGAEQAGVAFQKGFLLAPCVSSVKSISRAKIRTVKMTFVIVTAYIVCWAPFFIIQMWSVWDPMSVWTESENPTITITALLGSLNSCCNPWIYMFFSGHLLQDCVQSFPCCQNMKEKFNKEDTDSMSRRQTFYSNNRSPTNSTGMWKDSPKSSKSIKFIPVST

What is called Ki is a measure of affinity in units of concentration, obtained from inhibition or displacement. A high value points to a looser hold on the target. In turn, `CCOc1ncccc1[C@]1(NC(=O)N2CC(N3CCC(N4CCOCC4)CC3)C2)C(=O)N(S(=O)(=O)c2ccc(OC)cc2OC)c2ccc(C#N)cc21` [Example 1, (S)—N-(5-cyano-1-((2,4-dimethoxyphenyl)sulfonyl)-3-(2-ethoxypyridin-3-yl)-2-oxoindolin-3-yl)-3-(4-morpholinopiperidin-1-yl)azetidine-1-carboxamide] yielded a Ki in experiment [1] of less than 1 nM. In addition, the “Ki(h-V1a)/Ki(h-V1b)” value in experiment [2] was “+++ (>75)”.
In turn, `CCOc1ncccc1[C@]1(NC(=O)N2CC(N3CCC(N(C)C4COC4)CC3)C2)C(=O)N(S(=O)(=O)c2ccc(OC)cc2OC)c2ccc(C#N)cc21` [Example 2, (S)—N-(5-cyano-1-((2,4-dimethoxyphenyl)sulfonyl)-3-(2-ethoxypyridin-3-yl)-2-oxoindolin-3-yl)-3-(4-(methyl(oxetan-3-yl)amino)piperidin-1-yl)azetidine-1-carboxamide] had a Ki in experiment [1] of less than 1 nM. The “Ki(h-V1a)/Ki(h-V1b)” value in experiment [2] is listed as “+++ (>75)”.
Turning to `COc1ccc(S(=O)(=O)N2C(=O)[C@@](NC(=O)N3CC(N4CCC(N5CCOCC5)CC4)C3)(c3cccnc3OC)c3cc(C#N)ccc32)c(OC)c1` [Example 3, (S)—N-(5-Cyano-1-((2,4-dimethoxyphenyl)sulfonyl)-3-(2-methoxypyridin-3-yl)-2-oxoindolin-3-yl)-3-(4-morpholinopiperidin-1-yl)azetidine-1-carboxamide], the inhibition constant Ki in experiment [1] is less than 1 nM. Moreover, the “Ki(h-V1a)/Ki(h-V1b)” value in experiment [2] is on record as “+++ (>75)”.
Compound `COc1ccc(S(=O)(=O)N2C(=O)[C@@](NC(=O)N3CC(N4CCC(N(C)C5COC5)CC4)C3)(c3cccnc3OC)c3cc(C#N)ccc32)c(OC)c1` [Example 4, (S)—N-(5-Cyano-1-((2,4-dimethoxyphenyl)sulfonyl)-3-(2-methoxypyridin-3-yl)-2-oxoindolin-3-yl)-3-(4-(methyl(oxetan-3-yl)amino)piperidin-1-yl)azetidine-1-carboxamide] displayed a Ki in experiment [1] of 1 to 10 nM. The “Ki(h-V1a)/Ki(h-V1b)” value in experiment [2] is recorded as “+++ (>75)”.
Compound `CCOc1ncccc1[C@]1(NC(=O)N2CC(N3CCC(N(CC)C4COC4)CC3)C2)C(=O)N(S(=O)(=O)c2ccc(OC)cc2OC)c2ccc(C#N)cc21` [Example 5, (S)—N-(5-Cyano-1-((2,4-dimethoxyphenyl)sulfonyl)-3-(2-ethoxypyridin-3-yl)-2-oxoindolin-3-yl)-3-(4-(ethyl(oxetan-3-yl)amino)piperidin-1-yl)azetidine-1-carboxamide] returned a Ki in experiment [1] of 1 to 10 nM. For the same compound, in experiment [2], the “Ki(h-V1a)/Ki(h-V1b)” value is reported as “+++ (>75)”.
In turn, `CCOc1ncccc1[C@]1(NC(=O)N2CC(N3CCC(N4CCC5(CC4)COC5)CC3)C2)C(=O)N(S(=O)(=O)c2ccc(OC)cc2OC)c2ccc(C#N)cc21` [Example 6, (S)-3-(4-(2-Oxa-7-Azaspiro[3.5]nonan-7-yl)piperidin-1-yl)-N-(5-cyano-1-((2,4-dimethoxyphenyl)sulfonyl)-3-(2-ethoxypyridin-3-yl)-2-oxoindolin-3-yl)azetidine-1-carboxamide] yielded a Ki in experiment [1] of 1 to 10 nM. Also, the “Ki(h-V1a)/Ki(h-V1b)” value in experiment [2] is on record as “+++ (>75)”.
`CCOc1ncccc1[C@]1(NC(=O)N2CC(N3CCC(N4CCOCC4)CC3)C2)C(=O)N(S(=O)(=O)c2ccc(OC)cc2OC)c2cc(F)c(F)cc21` [Example 8, (S)—N-(1-((2,4-Dimethoxyphenyl)sulfonyl)-3-(2-ethoxypyridin-3-yl)-5,6-difluoro-2-oxoindolin-3-yl)-3-(4-morpholinopiperidin-1-yl)azetidine-1-carboxamide] came in with a Ki in experiment [1] of less than 1 nM. Further, the “Ki(h-V1a)/Ki(h-V1b)” value in experiment [2] is recorded as “++ (25-75)”.
Turning to `CCOc1ncccc1[C@]1(NC(=O)N2CC(N3CCC(N4CCOCC4)CC3)C2)C(=O)N(S(=O)(=O)c2ccc(OC)cc2OC)c2cc(F)c(C#N)cc21` [Example 9, (S)—N-(5-Cyano-1-((2,4-dimethoxyphenyl)sulfonyl)-3-(2-ethoxypyridin-3-yl)-6-fluoro-2-oxoindolin-3-yl)-3-(4-morpholinopiperidin-1-yl)azetidine-1-carboxamide], the Ki in experiment [1] was less than 1 nM. In addition, the “Ki(h-V1a)/Ki(h-V1b)” value in experiment [2] is “++ (25-75)”.
Turning to `CCOc1ncccc1[C@]1(NC(=O)N2CC(N3CCC(N(C)C4COC4)CC3)C2)C(=O)N(S(=O)(=O)c2ccc(OC)cc2OC)c2cc(F)c(C#N)cc21` [Example 10, (S)—N-(5-Cyano-1-((2,4-dimethoxyphenyl)sulfonyl)-3-(2-ethoxypyridin-3-yl)-6-fluoro-2-oxoindolin-3-yl)-3-(4-(methyl(oxetan-3-yl)amino)piperidin-1-yl)azetidine-1-carboxamide], in experiment [1], the Ki was less than 1 nM. Besides, the “Ki(h-V1a)/Ki(h-V1b)” value in experiment [2] was “+++ (>75)”.
The compound `CCOc1ncccc1[C@]1(NC(=O)N2CC(N3CCC(N(C)C4COC4)CC3)C2)C(=O)N(S(=O)(=O)c2ccc(OC)cc2OC)c2cc(F)c(F)cc21` [Example 11, N-[(3S)-1-[(2,4-Dimethoxyphenyl)sulfonyl]-3-(2-ethoxypyridin-3-yl)-5,6-difluoro-2-oxo-2,3-dihydro-1H-indol-3-yl]-3-{4-[methyl(oxetan-3-yl)amino]piperidin-1-yl}azetidine-1-carboxamide] gave a Ki in experiment [1] of 1 to 10 nM. Also, the “Ki(h-V1a)/Ki(h-V1b)” value in experiment [2] is listed as “++ (25-75)”.
In experiment [1], `CCOc1ncccc1[C@]1(NC(=O)N2CC(N3CCC(N4CCOCC4)CC3)C2)C(=O)N(S(=O)(=O)c2ccc(OC)cc2OC)c2ccc(Cl)cc21` [Example 13, (S)—N-(5-Chloro-1-((2,4-dimethoxyphenyl)sulfonyl)-3-(2-ethoxypyridin-3-yl)-2-oxoindolin-3-yl)-3-(4-morpholinopiperidin-1-yl)azetidine-1-carboxamide] displayed a Ki of less than 1 nM.
On the same count and under the same terms, the result for `CCOc1ncccc1[C@]1(NC(=O)N2CC(N3CCC(N(C)C4COC4)CC3)C2)C(=O)N(S(=O)(=O)c2ccc(OC)cc2OC)c2ccc(Cl)cc21` [Example 14, (S)—N-(5-Chloro-1-((2,4-dimethoxyphenyl)sulfonyl)-3-(2-ethoxypyridin-3-yl)-2-oxoindolin-3-yl)-3-(4-(methyl(oxetan-3-yl)amino)piperidin-1-yl)azetidine-1-carboxamide] reads less than 1 nM.
For `CCOc1ncccc1[C@]1(NC(=O)N2CC(N3CCC(N(C)CCOC)CC3)C2)C(=O)N(S(=O)(=O)c2ccc(OC)cc2OC)c2ccc(C#N)cc21` [Example 15, (S)—N-(5-Cyano-1-((2,4-dimethoxyphenyl)sulfonyl)-3-(2-ethoxypyridin-3-yl)-2-oxoindolin-3-yl)-3-(4-((2-methoxyethyl)(methyl)amino)piperidin-1-yl)azetidine-1-carboxamide], in experiment [1], the Ki lay within 1 to 10 nM. Besides, the “Ki(h-V1a)/Ki(h-V1b)” value in experiment [2] is listed as “+++ (>75)”.
Consider `CCOc1ncccc1[C@]1(NC(=O)N2CC(N3CCC(N4CCCO4)CC3)C2)C(=O)N(S(=O)(=O)c2ccc(OC)cc2OC)c2ccc(C#N)cc21` [Example 17, (S)—N-(5-Cyano-1-((2,4-dimethoxyphenyl)sulfonyl)-3-(2-ethoxypyridin-3-yl)-2-oxoindolin-3-yl)-3-(4-(isoxazolidin-2-yl)piperidin-1-yl)azetidine-1-carboxamide], for which, in experiment [1], the Ki lay within 10 to 100 nM. Moreover, the “Ki(h-V1a)/Ki(h-V1b)” value in experiment [2] is “+++ (>75)”.
`CCOc1ncccc1[C@]1(NC(=O)N2CC(N3CCC(N4CCOCC4)CC3)C2)C(=O)N(S(=O)(=O)c2ccc(F)cc2F)c2ccc(C#N)cc21` [Example 26, (S)—N-(5-Cyano-1-((2,4-difluorophenyl)sulfonyl)-3-(2-ethoxypyridin-3-yl)-2-oxoindolin-3-yl)-3-(4-morpholinopiperidin-1-yl)azetidine-1-carboxamide] gave a Ki in experiment [1] of 1 to 10 nM.
